Measured values: article PMC4322365, “A Ligand-observed Mass Spectrometry Approach Integrated into the Fragment Based Lead Discovery Pipeline” (Scientific Reports, 2015)
“And” between values parts separate entries of the source, which are not always exact repeats. Identical values can stand only once. Like-named read-outs stand apart in the source and are kept apart here.

Assays:
HCV RNA polymerase NS5B [1] = target: T1, HCV RNA polymerase NS5B (Hepatitis C virus genotype 1b, UniProt P26663); experiment: Ligand-observed MS secondary screen of 7 subdivided fragment cocktails; type: binding; conditions: 7 cocktails of 50 or 84 fragments; two replicates separated by a slash; S/N > 10 positive; ND: not detected by MS analysis
T1 construct: NS5B with a C-terminal 10-His tag was expressed in E. coli; 10-His (C); made in house; host or cells: E. coli
Procedure: To reduce possible false-positives from the primary screen, the library was divided to 7 cocktails among which six consist of 50 fragments and the last one of 84 fragments. Individual cocktails were incubated with NS5B protein prior to protein complex isolation and ligand-observed MS analysis, resulting in a total of 12 positive hits after screening the seven cocktails (Figure 1C). […] Thus the confidence in hit identification was enhanced by selecting hits repetitively found from the two screens against cocktails of different diversity. It is noteworthy that the preliminary hits missed in the secondary screen might be due to either nonspecific binding or co-operative binding that only occurred when the entire library was incubated with the target. Apart from the 12 hits, 25 fragments with S/N < 10 from the secondary screen were regarded non-binders and discarded.
(§1) In the primary screening, a mixture of 384 fragments (each at a final concentration of 25 μM) and NS5B at 50 μM was prepared in the binding buffer of 20 mM MES (pH 6.5), 300 mM NaCl and 10% glycerol, and incubated for 40 min at 25°C. All fragments of the library were either purchased from Sigma or synthesized in our laboratory, and their structural diversity was summarized in Figure S4. The mixture was then filtered through an ultrafiltration membrane (50 KD MW cut-off) by centrifugation at 13000 g for 10 min at […]. The protein complexes bound with different fragments were washed twice with 10 mM ammonium acetate (pH 6.5) followed by centrifugation to remove the unbound fragments. The resulting solution of the complexes was transferred to a new centrifugal tube, and the ligands were dissociated from NS5B with 90% methanol in deionized water. The released ligands were then separated from the denatured protein by centrifugation at 13000 g for 10 min at 20°C. The supernatant containing the ligands was evaporated by a speed vacuum, reconstituted in 80% methanol, and analyzed by LC/MS. The protein-free control was prepared by using the binding buffer substitute for NS5B during incubation and it underwent the same process as the NS5B incubated sample. In the secondary screen, 384 fragments were divided into 7 cocktails, each consisting of 50 fragments except for the seventh cocktail of 84 fragments. Each cocktail was then incubated with NS5B in the binding buffer at the same final concentration as in the primary screen. […] Ultrafiltration and complex dissociation were performed as described earlier to obtain fragment ligands. Samples were all prepared in duplicate and analyzed separately.
Aliquots of reconstituted ultrafiltrates were analyzed on a Waters Synapt G1 high-dfinition mass spectrometer (Milford, MA) equipped with a Waters Acquity UPLC system. UPLC separation was carried out on a Waters Acquity BEH C18 column (2.1 mm × 50 mm, 1.7 μm) at a flow rate of 200 μL/min, with the mobile phases of water/0.1% formic acid (A) and acetonitrile/0.1% formic acid (B). In the primary screen, the LC gradient was as follows: 0–15 min, 2–50% B; 15–17 min, 50%–90% B; 17–20 min, 90% B. In the secondary screen and the validation assay, the first fraction of gradient (2–50% B) was shortened to 6 min. The regular ESI ion source operated in both positive- and negative-ion modes. Mass spectra were acquired within a mass range from 100 to 800 m/z, with capillary voltage 3.0 kV in the positive mode and 2.6 kV in the negative mode, sample cone voltage 54 V (positive mode) and 45 V (negative mode), extraction cone voltage 4.7 V (positive mode) and 4.0 V (negative mode), desolvation temperature 350°C, source temperature 100°C, and desolvation gas flow 500 L/h. External calibration with a solution of sodium formate achieved mass accuracy within 10 ppm. LC/MS chromatogram extraction and peak area calculation for specific fragments were performed by use of MassLynx software (v4.1, Waters) based on accurate mass measurement of the compound with a tolerance of 0.01 Da. […]

HCV RNA polymerase NS5B [2] = target: T1, HCV RNA polymerase NS5B; experiment: biochemical; type: binding; conditions: for S/N in the validation assay / Binding degree (fraction of fragment ligands over total fragment in incubation): 12-hit mixture; for S/N in the validation assay: two replicates separated by a slash, S/N > 10 positive, ND: not detected by MS analysis; for MS S/N: Figure 2B, S/N factors from two independent experiments, legend says validation assay; for LE (ligand efficiency): derived from Kd at P/L 1:1 and heavy atom count; for Binding degree (fraction of fragment ligands over total fragment in incubation): P/L 2:1, 1:1, 1:2, theoretical value for about 1 mM affinity
Procedure: Binding degree of each fragment represented by the fraction of fragment ligands over the total amount of fragments during incubation reflects the relative order of binding strengths.
In order to determine the dissociation constant of each fragment ligand, we prepared calibration curves for the MS responses of ten fragments in a mixture (Figure S1) and measured the recovery rate of each fragment (Table S3), which were used to derive the actual concentrations of fragments bound to the target. Kd values were then calculated based on the measured concentrations of fragment ligands dissociated from the target (Table S3). […] Ligand efficiency (LE) values were then derived from Kd's as a measure to justify which fragments to further optimize and elaborate in the FBLD pipeline[46][47] (Figure 2A). […] SPR was then implemented for Kd determination for these fragment hits.
as §1, with “All” for “In the primary screening, a mixture of 384 fragments (each at a final concentration of 25 μM) and NS5B at 50 μM was prepared in the binding buffer of 20 mM MES (pH 6.5), 300 mM NaCl and 10% glycerol, and incubated for 40 min at 25°C. All”, “In the secondary screen, 384 fragments were divided into 7 cocktails, each consisting of 50 fragments except for the seventh cocktail of 84 fragments.” left out

[3] = P/L = 1:1, protein 25 μM, estimated from MS-measured bound ligand concentration, read-out: Kd
[4] = P/L = 1:2, protein 25 μM, read-out: Kd
[5] = P/L = 2:1, protein 25 μM, read-out: Kd
[6] = Kd, P/L = 1:1, protein 25 μM, estimated from MS-measured bound ligand concentration

T1 sequence (P26663 2420-3010): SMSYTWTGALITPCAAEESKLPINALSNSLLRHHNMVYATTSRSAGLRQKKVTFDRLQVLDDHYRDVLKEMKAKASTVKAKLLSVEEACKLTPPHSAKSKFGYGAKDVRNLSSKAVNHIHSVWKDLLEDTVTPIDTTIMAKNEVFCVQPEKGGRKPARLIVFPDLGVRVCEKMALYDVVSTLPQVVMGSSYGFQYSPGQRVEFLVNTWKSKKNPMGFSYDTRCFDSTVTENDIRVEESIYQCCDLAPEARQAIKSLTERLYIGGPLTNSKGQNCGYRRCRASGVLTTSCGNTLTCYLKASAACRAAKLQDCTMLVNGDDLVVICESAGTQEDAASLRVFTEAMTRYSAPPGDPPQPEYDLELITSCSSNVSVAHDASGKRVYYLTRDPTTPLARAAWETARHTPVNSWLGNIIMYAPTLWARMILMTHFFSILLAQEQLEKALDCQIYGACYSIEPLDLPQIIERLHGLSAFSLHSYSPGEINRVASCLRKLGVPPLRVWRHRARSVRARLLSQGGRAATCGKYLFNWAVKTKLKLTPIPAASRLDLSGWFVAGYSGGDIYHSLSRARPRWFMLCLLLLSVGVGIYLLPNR

Row | SMILES | S/N in the 2nd screen (HCV RNA polymerase NS5B [1]) | S/N in the validation assay (HCV RNA polymerase NS5B [2]) | MS S/N (HCV RNA polymerase NS5B [2]) | Kd (HCV RNA polymerase NS5B [2]; [3]) [mM] | Kd (HCV RNA polymerase NS5B [2]; [4]) [mM] | Kd (HCV RNA polymerase NS5B [2]; [5]) [mM] | LE (ligand efficiency) (HCV RNA polymerase NS5B [2]) | Binding degree (fraction of fragment ligands over total fragment in incubation) (HCV RNA polymerase NS5B [2]) [%] | Kd (HCV RNA polymerase NS5B [2]; [6]) [mM] | Kd (HCV RNA polymerase NS5B [2]; Kd, P/L = 1:2, protein 25 μM) [mM] | Kd (HCV RNA polymerase NS5B [2]; Kd, P/L = 2:1, protein 25 μM) [mM]
1 | Oc1ccc(F)c(Cl)c1 [Fragment 85] | 79.0 and 86.0 | 60.0 and 53.0 | 79 and 86 | 5.67 ± 0.34 | 6.8 ± 0.99 | 6.2 ± 0.51 | 0.33 | – | – | – | –
2 | N#CCc1ccc(O)cc1 [Fragment 114] | 103.0 and 91.0 | 983.0 and 1198.0 | 103 and 91 | – | – | – | 0.40 | ~2.4 | 1.01 ± 0.06 | 1.2 | 1.13 ± 0.25
3 | Cc1ccc2oc(=O)ccc2c1 [Fragment 117] | 34.3 and 39.6 | 111.0 and 122.0 | 34 and 40 | 9.31 ± 0.23 | 9.18 ± 2.75 | 8.96 ± 0.84 | 0.22 | – | – | – | –
4 | Cn1c(=O)cc(O)c2ccccc21 [Fragment 130] | 48.4 and 49.4 | 378.0 and 376.0 | 48 and 49 | 1.19 ± 0.08 | 1.37 ± 0.04 | 0.95 ± 0.08 | 0.30 | ~2.4 | – | – | –
5 | Cc1cc(N)n(-c2ccccc2)n1 [Fragment 131] | 23.1 and 19.4 | 56.0 and 46.0 | 23 and 19 | 13.4 ± 1.98 | 7.29 ± 0.19 | 12.7 ± 2.03 | 0.20 | – | – | – | –
6 | Nc1ccc(C(F)(F)F)cn1 [Fragment 162] | 19.7 and 17.3 | 466.0 and 513.0 | 20 and 17 | 8.96 ± 2.49 | 9.53 ± 0.26 | 10.2 ± 1.3 | 0.25 | – | – | – | –
7 | O=C(O)c1ccc(C(F)(F)F)cc1 [Fragment 204] | 22.4 and 19.8 | 21.0 and 23.0 | 22 and 20 | 4.04 ± 0.34 | 5.27 | 3.78 ± 0.35 | 0.25 | – | – | – | –
8 | Oc1ccc(SC(F)(F)F)cc1 [Fragment 237] | 29.0 and 36.0 | 212.0 and 196.0 | 29 and 36 | 5.64 ± 0.06 | 6.45 ± 1.67 | 5.19 ± 0.46 | 0.25 | – | – | – | –
9 | N#CC(c1ccccc1)N1CCOCC1 (stereo not drawn) [Fragment 328] | 17.4 and 16.3 | 170.0 and 155.0 | 17 and 16 | – | – | – | 0.14 | – | 20 | 26.4 ± 7.92 | 23.5 ± 2.65
10 | Cc1nc2ccccc2nc1C [Fragment 339] | 66.2 and 62.4 | 172.0 and 223.0 | 66 and 62 | – | – | – | 0.22 | – | 10.2 ± 0.45 | 8.95 ± 2.03 | 11.2 ± 1.45
